Patent EP4375289A1, “PEPTIDE WITH ANTIMICROBIAL ACTIVITY” (Freie Universität Berlin, priority 2022, dated 2024)
Square brackets hold non-standard residues; d marks the D form. Peptide text beside a SMILES is read from it. 2Abz = Nc1ccccc1C(=O)O; Abu = CC[C@H](N)C(=O)O

Columns and labels:
[1] = Peptide-induced membrane disrupting activity; assay type: biochemical; conditions: artificial phospholipid membranes at physiological pH
Experimental: Peptide-induced membrane disrupting activity was determined before by calculation of EC50 values and an increase in bioactivity with a growing degree of side chain fluorination was found.

red blood cells = assay type: cell-based; conditions: data not shown
Experimental: Hemolysis assays were performed on red blood cells and cytotoxicity tests with two cell lines (HeLa, A549). No potent hemolytic activity for all peptides up to a concentration of 250 µg/mL, corresponding to concentrations of 140 µM (AbuR14) - 125 µM (TfeGlyR14) was determined (data not shown).

E. coli = assay: Minimum inhibitory concentration (MIC) assay, CLSI broth dilution; assay type: cell-based; conditions: E. coli ATCC 25922
Experimental: (§1) Minimum inhibitory concentrations (MIC) assays were performed according to Clinical and Laboratory Standards Institute (CLSI) recommendations in cation-adjusted Mueller-Hinton broth (Mueller-Hinton II) broth in flat-bottomed, 96-well plates (Corning, Wiesbaden, Germany) with an inoculum of 10^5 bacteria/well and incubated at 37°C overnight. The optical density of the cultures was determined at 460 and 600 nm immediately after inoculation and after overnight incubation using a BioTek Synergy HT plate reader. Controls included bacterial strains, medium alone and wells without peptide additions. A serial dilution of each peptide was done before bacteria addition. A serial dilution of media including the respective peptide solvent without peptides supplement (Dimethylsulfoxid; Sigma-Aldrich, Taufkirchen, Germany or 1 x phosphate buffered saline; Biochrom, Berlin, Germany) functions as control to ensure the solvent influence on growth.

E. faecalis = assay: as above; assay type: cell-based; conditions: E. faecalis ATCC 29212
Experimental: as §1

K. pneumoniae = assay: as above; assay type: cell-based; conditions: K. pneumoniae ATCC 700603
Experimental: as §1

P. aeruginosa = assay: as above; assay type: cell-based; conditions: P. aeruginosa ATCC 27853
Experimental: as §1

S. Typhimurium = assay: as above; assay type: cell-based; conditions: S. Typhimurium ATCC 14028
Experimental: as §1

S. aureus = assay: as above; assay type: cell-based; conditions: S. aureus ATCC 29213
Experimental: as §1

C. albicans = assay: as above; assay type: cell-based; conditions: C. albicans IMT 9655

CC(C)C[C@@H](NC(=O)[C@H](CCCNC(=N)N)NC(=O)[C@H](Cc1c[nH]c2ccccc12)NC(=O)[C@H](CCCNC(=N)N)NC(=O)[C@@H](NC(=O)[C@@H](N)CCCNC(=N)N)C(C)C)C(=O)N[C@H](Cc1ccccc1)C(=O)Nc1ccccc1C(=O)N[C@H](C)C(=O)N[C@@H](CCCNC(=N)N)C(=O)N[C@@H](Cc1c[nH]c2ccccc12)C(=O)N[C@@H](CCCNC(=N)N)C(=O)N[C@H](C(=O)N[C@@H](CCCNC(=N)N)C(=O)O)C(C)C [SAJO-2, H-R-Val-R-Trp-R-[I-f-[2]Abz-a]-R-Trp-R-Val-R-OH, reference compound] (H-RVRWR[dL][dF][2Abz][dA]RWRVR-OH; N-terminus and C-terminus assumed)
EC50 [1]: 70 µM
peptide-induced hemolysis at minimum concentrations (red blood cells; red blood cells): ≥ 0.5 mg/mL

CC[C@H](NC(=O)[C@H](CCCNC(=N)N)NC(=O)[C@H](CC)NC(=O)[C@H](CCCNC(=N)N)NC(=O)[C@@H](C)NC(=O)c1ccccc1NC(=O)[C@@H](Cc1ccccc1)NC(=O)[C@@H](CC(C)C)NC(=O)[C@H](CCCNC(=N)N)NC(=O)[C@H](CC)NC(=O)[C@H](CCCNC(=N)N)NC(=O)[C@H](CC)NC(=O)[C@H](CCCNC(=N)N)NC(C)=O)C(=O)N[C@@H](CCCNC(=N)N)C(N)=O [AbuR14, Ac-R-Abu-R-Abu-R-[I-f-[2]Abz-a]-R-Abu-R-Abu-R-NH2] (Ac-R[Abu]R[Abu]R[dL][dF][2Abz][dA]R[Abu]R[Abu]R-NH2)
1*MIC (E. coli): 128 µg/mL
1*MIC (E. faecalis): 512 µg/mL
1*MIC (K. pneumoniae): ≥1024 µg/mL
1*MIC (P. aeruginosa): ≥1024 µg/mL
1*MIC (S. Typhimurium): 256 µg/mL
1*MIC (S. aureus): ≥1024 µg/mL
1*MIC (C. albicans): 512 µg/mL
EC50 [1]: 148 µM
No potent hemolytic activity up to a concentration (corresponding concentration) (red blood cells; corresponding to 250 µg/mL): > 140 µM
